Reference: patent publication US20250320213A1, “Nitrogen-Containing Heterocyclic Compounds” (Pfizer Inc., priority 2024, published 2025)

How the values were obtained:
[1] = tested on: CCL17 secretion in peripheral human whole blood; assay: Human Whole Blood (HWB) CCL17 TR-FRET Assay (IL-13 stimulated CCL17 secretion); assay type: cell-based; details: Homo sapiens, 48 h, inhibition of CCL17 secretion in human whole blood, 10 ng/mL IL13, 48 hours
In short: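 Heparinized peripheral human whole blood was preincubated with compound (11-point, 3-fold series, duplicate) for 2 h at 37 °C, then stimulated with IL-13 at 10 ng/mL final for 48 h at 37 °C. Secreted CCL17 in the serum was quantified by TR-FRET sandwich immunoassay (665/615 nm ratio, 16 h RT); IC50 derived.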

STAT6 = target: T1, STAT6 (Homo sapiens, UniProt P42226); assay: STAT6 Reporter Luciferase Assay (IL-13 stimulated HaCaT keratinocyte NanoLuc reporter cells); assay type: cell-based; details: STAT6 NanoLuc luciferase reporter, IL-13 stimulated HaCaT keratinocyte cells; read-out: Reporter EC50
T1 construct: stably transfected HaCaT keratinocyte cell line, which expresses NanoLuc luciferase reporter gene under the transcriptional control of the STAT6 responsive promoter; endogenous in cells; host or cells: HaCaT keratinocyte reporter cell line (stably transfected with a NanoLuc reporter)
T1 sequence (P42226 1-847): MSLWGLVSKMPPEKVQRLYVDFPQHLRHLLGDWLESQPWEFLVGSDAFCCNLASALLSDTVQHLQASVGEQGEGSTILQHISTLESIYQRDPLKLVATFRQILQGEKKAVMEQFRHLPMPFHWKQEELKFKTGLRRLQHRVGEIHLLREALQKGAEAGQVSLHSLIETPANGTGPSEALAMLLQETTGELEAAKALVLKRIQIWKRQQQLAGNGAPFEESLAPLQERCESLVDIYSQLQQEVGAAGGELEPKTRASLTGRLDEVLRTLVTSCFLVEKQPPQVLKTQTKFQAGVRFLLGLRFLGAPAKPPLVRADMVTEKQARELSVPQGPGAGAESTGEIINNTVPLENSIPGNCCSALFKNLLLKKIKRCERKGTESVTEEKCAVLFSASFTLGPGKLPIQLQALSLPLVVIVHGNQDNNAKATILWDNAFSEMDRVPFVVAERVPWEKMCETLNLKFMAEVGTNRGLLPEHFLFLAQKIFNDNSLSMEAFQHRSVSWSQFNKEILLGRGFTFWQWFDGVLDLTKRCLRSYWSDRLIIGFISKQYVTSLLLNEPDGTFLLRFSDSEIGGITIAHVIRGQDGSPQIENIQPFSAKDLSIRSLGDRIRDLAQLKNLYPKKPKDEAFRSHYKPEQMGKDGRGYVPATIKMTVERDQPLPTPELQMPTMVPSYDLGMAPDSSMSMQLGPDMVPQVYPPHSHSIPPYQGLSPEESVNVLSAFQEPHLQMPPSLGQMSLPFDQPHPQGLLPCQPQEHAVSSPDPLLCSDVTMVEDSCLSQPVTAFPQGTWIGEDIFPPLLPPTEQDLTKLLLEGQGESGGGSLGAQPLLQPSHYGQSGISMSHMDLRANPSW
In short: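 Compounds were tested as 11-point, 4-fold series in duplicate, applied for 2 h at 37 °C in low-serum (2% FBS) DMEM. The cells were a stable HaCaT line with NanoLuc under a STAT6-responsive IL-13Ra2 promoter. After 4 h with 0.12 nM IL-13, Nano-Glo luminescence was measured.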

SMILES | IC50 [1] | EC50 (STAT6)
CC(C)n1nc(C(=O)NCc2ccc(NC(=O)N(C)C)cc2)c2c1CCN(c1ccc(N3CCN(C)C3=O)cn1)C2 [Example 60, N-(4-(3,3-dimethylureido)benzyl)-1-isopropyl-5-(5-(3-methyl-2-oxoimidazolidin-1-yl)pyridin-2-yl)-4,5,6,7-tetrahydro-1H-pyrazolo[4,3-c]pyridine-3-carboxamide] | 0.91 µM | 0.032 µM
CC(C)n1nc(C(=O)NCc2ccc(NC(=O)N(C)C)cc2)c2c1CCN(c1ccc(-n3ccnn3)cn1)C2 [Example 64, 5-(5-(1H-1,2,3-triazol-1-yl)pyridin-2-yl)-N-(4-(3,3-dimethylureido)benzyl)-1-isopropyl-4,5,6,7-tetrahydro-1H-pyrazolo[4,3-c]pyridine-3-carboxamide] | 0.073 µM | 0.004 µM
CC(C)n1nc(C(=O)NCc2ccc(NC(=O)N(C)C)cc2)c2c1CCN(c1ccc(N3C[C@@H](C)CC3=O)cn1)C2 [Example 66, (S)-N-(4-(3,3-dimethylureido)benzyl)-1-isopropyl-5-(5-(4-methyl-2-oxopyrrolidin-1-yl)pyridin-2-yl)-4,5,6,7-tetrahydro-1H-pyrazolo[4,3-c]pyridine-3-carboxamide] | 0.089 µM | 0.013 µM
CC(C)n1nc(C(=O)NCc2ccc(NC(=O)N(C)C)cc2)c2c1CCN(c1ccc(N3C[C@H](C)CC3=O)cn1)C2 [Example 67, (R)-N-(4-(3,3-dimethylureido)benzyl)-1-isopropyl-5-(5-(4-methyl-2-oxopyrrolidin-1-yl)pyridin-2-yl)-4,5,6,7-tetrahydro-1H-pyrazolo[4,3-c]pyridine-3-carboxamide] | 5.02 µM | 0.064 µM
CC(C)n1nc(C(=O)NCc2ccc(NC(=O)N(C)C)cc2)c2c1CCN(c1ccc(N3C(=O)CC[C@H]3CO)cn1)C2 [Example 69, (S)-N-(4-(3,3-dimethylureido)benzyl)-5-(5-(2-(hydroxymethyl)-5-oxopyrrolidin-1-yl)pyridin-2-yl)-1-isopropyl-4,5,6,7-tetrahydro-1H-pyrazolo[4,3-c]pyridine-3-carboxamide] | 8.11 µM | 1.07 µM
CCCn1nc(C(=O)NCc2ccc(NC(=O)N(C)C)cc2)c2c1CCN(c1ccc(C(=O)N(C)C)cn1)C2 [Example 74, 5-(5-(dimethylcarbamoyl)pyridin-2-yl)-N-(4-(3,3-dimethylureido)benzyl)-1-propyl-4,5,6,7-tetrahydro-1H-pyrazolo[4,3-c]pyridine-3-carboxamide] | 0.12 µM | 0.011 µM
CN(C)C(=O)Nc1ccc(CNC(=O)c2nn(C3CCOCC3)c3c2CN(c2ccc(C(=O)N(C)C)cn2)CC3)cc1 [Example 76, 5-(5-(dimethylcarbamoyl)pyridin-2-yl)-N-(4-(3,3-dimethylureido)benzyl)-1-(tetrahydro-2H-pyran-4-yl)-4,5,6,7-tetrahydro-1H-pyrazolo[4,3-c]pyridine-3-carboxamide] | 0.156 µM | 0.057 µM
CC[C@H]1CCC(=O)N1c1ccc(N2CCc3c(c(C(=O)NCc4ccc(NC(=O)N(C)C)cc4)nn3C(C)C)C2)nc1 [Example 79, (S)-N-(4-(3,3-dimethylureido)benzyl)-5-(5-(2-ethyl-5-oxopyrrolidin-1-yl)pyridin-2-yl)-1-isopropyl-4,5,6,7-tetrahydro-1H-pyrazolo[4,3-c]pyridine-3-carboxamide] | 1.78 µM | 0.041 µM
CC(C)n1nc(C(=O)NCc2ccc(NC(=O)N(C)C)cc2)c2c1CCN(c1ccc(N3CC[C@H](F)C3=O)cn1)C2 [Example 84, (S)-N-(4-(3,3-dimethylureido)benzyl)-5-(5-(3-fluoro-2-oxopyrrolidin-1-yl)pyridin-2-yl)-1-isopropyl-4,5,6,7-tetrahydro-1H-pyrazolo[4,3-c]pyridine-3-carboxamide] | 0.056 µM | 0.002 µM
CC(C)n1nc(C(=O)NCc2ccc(NC(=O)N(C)C)cc2)c2c1CCN(c1ccc(N3CC4CC4C3=O)cn1)C2 (centres unmarked) [Example 91, N-(4-(3,3-dimethylureido)benzyl)-1-isopropyl-5-(5-(2-oxo-3-azabicyclo[3.1.0]hexan-3-yl)pyridin-2-yl)-4,5,6,7-tetrahydro-1H-pyrazolo[4,3-c]pyridine-3-carboxamide] | 0.327 µM | 0.014 µM
CN(C)C(=O)Nc1ccc(CNC(=O)c2nn(C3COC3)c3c2CN(c2ccc(C(=O)N(C)C)cn2)CC3)cc1 [Example 94, 5-(5-(dimethylcarbamoyl)pyridin-2-yl)-N-(4-(3,3-dimethylureido)benzyl)-1-(oxetan-3-yl)-4,5,6,7-tetrahydro-1H-pyrazolo[4,3-c]pyridine-3-carboxamide] | 0.089 µM | 0.049 µM

The remaining lines, values ahead:

IC50 [1] | EC50 (STAT6) | SMILES
0.369 µM | 0.013 µM | CC1CCC(=O)N1c1ccc(N2CCc3c(c(C(=O)NCc4ccc(NC(=O)N(C)C)cc4)nn3C(C)C)C2)nc1 (centres unmarked) [Example 56, N-(4-(3,3-dimethylureido)benzyl)-1-isopropyl-5-(5-(2-methyl-5-oxopyrrolidin-1-yl)pyridin-2-yl)-4,5,6,7-tetrahydro-1H-pyrazolo[4,3-c]pyridine-3-carboxamide]
2.59 µM | 0.075 µM | CC1CCN(c2ccc(N3CCc4c(c(C(=O)NCc5ccc(NC(=O)N(C)C)cc5)nn4C(C)C)C3)nc2)C1=O (centres unmarked) [Example 61, N-(4-(3,3-dimethylureido)benzyl)-1-isopropyl-5-(5-(3-methyl-2-oxopyrrolidin-1-yl)pyridin-2-yl)-4,5,6,7-tetrahydro-1H-pyrazolo[4,3-c]pyridine-3-carboxamide]
28.1 µM | 0.208 µM | CC(C)n1nc(C(=O)NCc2ccc(NC(=O)N(C)C)cc2)c2c1CCN(c1ccc(N3CCC4(CC4)C3=O)cn1)C2 [Example 65, N-(4-(3,3-dimethylureido)benzyl)-1-isopropyl-5-(5-(4-oxo-5-azaspiro[2.4]heptan-5-yl)pyridin-2-yl)-4,5,6,7-tetrahydro-1H-pyrazolo[4,3-c]pyridine-3-carboxamide]
0.081 µM | 0.008 µM | CN(C)C(=O)Nc1ccc(CNC(=O)c2nn(C)c3c2CN(c2ccc(C(=O)N(C)C)cn2)CC3(F)F)cc1 [Example 70, 5-(5-(dimethylcarbamoyl)pyridin-2-yl)-N-(4-(3,3-dimethylureido)benzyl)-7,7-difluoro-1-methyl-4,5,6,7-tetrahydro-1H-pyrazolo[4,3-c]pyridine-3-carboxamide]
9.35 µM | 0.121 µM | CC(C)n1nc(C(=O)NCc2ccc(NC(=O)N(C)C)cc2)c2c1CCN(c1ccc(N3C(=O)CCC34CC4)cn1)C2 [Example 73, N-(4-(3,3-dimethylureido)benzyl)-1-isopropyl-5-(5-(5-oxo-4-azaspiro[2.4]heptan-4-yl)pyridin-2-yl)-4,5,6,7-tetrahydro-1H-pyrazolo[4,3-c]pyridine-3-carboxamide]
4.56 µM | 2.83 µM | CC(C)n1nc(C(=O)NCc2ccc(NC(=O)N(C)C)cc2)c2c1CCN(c1ccc(N3C[C@H](CO)CC3=O)cn1)C2 [Example 75, (R)-N-(4-(3,3-dimethylureido)benzyl)-5-(5-(4-(hydroxymethyl)-2-oxopyrrolidin-1-yl)pyridin-2-yl)-1-isopropyl-4,5,6,7-tetrahydro-1H-pyrazolo[4,3-c]pyridine-3-carboxamide]
2.08 µM | 0.424 µM | CC(C)n1nc(C(=O)NCc2ccc(NC(=O)N(C)C)cc2)c2c1CCN(c1ccc(N3C(=O)CC[C@@H]3CO)cn1)C2 [Example 88, (R)-N-(4-(3,3-dimethylureido)benzyl)-5-(5-(2-(hydroxymethyl)-5-oxopyrrolidin-1-yl)pyridin-2-yl)-1-isopropyl-4,5,6,7-tetrahydro-1H-pyrazolo[4,3-c]pyridine-3-carboxamide]
0.149 µM | 0.012 µM | CN(C)C(=O)Nc1ccc(CNC(=O)c2nn(CC3CC3)c3c2CN(c2ccc(C(=O)N(C)C)cn2)CC3)cc1 [Example 89, 1-(cyclopropylmethyl)-5-(5-(dimethylcarbamoyl)pyridin-2-yl)-N-(4-(3,3-dimethylureido)benzyl)-4,5,6,7-tetrahydro-1H-pyrazolo[4,3-c]pyridine-3-carboxamide]
